According to US20100150884A1, “Anticancer Agent to Be Combined with Telomelysin” (priority 2005, published 2010):

Key:
tumor cells = test: Cell cycle analysis with PI (propidium iodide) using flow cytometry; assay type: cell-based; settings: for sub G0/G1: after G2/M arrest; for cell cycle arrest: began 12 hours after administration
Text: The influence of the substance having an antitumor effect and the recombinant virus used in combination in the pharmaceutical composition of the present invention upon the cell cycle of target cells may be examined, for example, by analyzing cell cycle with a nuclear dye PI (propidium iodide) using flow cytometry.
As a result of cell death, cell membranes become unable to retain their states and nuclei are readily stained with a nuclear dye such as PI mentioned above. Therefore, DNA content and cell cycle can be judged from the results of nuclear staining with PI. Here, it should be note that when ratios of S phase and G2/M phase in cell cycle are high in tumor cells, the malignancy is judged to be high.
Cell cycle was analyzed with PI (propidium iodide) using flow cytometry.

[1] = test system: H1299 lung cancer cell tumor; test: In vivo antitumor effect, H1299 subcutaneous tumor, tumor size; parameters: species or system nude mice; settings: combination: Telomelysin intratumoral 1×10^7 pfu and docetaxel 12.5 mg/kg intraperitoneal, three times
Procedure: H1299 was inoculated subcutaneously at the back of 5-week old nude mice. One, three and five days after the tumor reached 5-10 mm in size, Telomelysin was administered intratumorally at a dose of 1×10^7 pfu/50 μl/mouse and docetaxel was administered at a dose of 12.5 mg/kg intraperitoneally both three times in the total. As a control, PBS was administered intratumorally and intraperitoneally. Tumor size was measured in every three days.

liver = test: HE staining of liver after intratumoral administration; assay type: in vivo, nude mice; settings: Telomelysin in combination with docetaxel; six days after the final administration
Procedure: (§1) H1299 was inoculated subcutaneously at the back of 5-week old nude mice. When the tumor reached 5-10 mm in size, Telomelysin was administered intratumorally. Six days after the final administration, tumor tissue and liver were stained with HE as described below. Briefly, tissue sections were prepared, deparaffinized and washed with water. Then, distilled water was fed to the tissue section. Hematoxylin solution was added thereto and left stationary for 20 minutes. Then, the section was rinsed with water lightly. The resultant section was fractionated with 1% hydrochloric acid/70% alcohol, followed by color development. Then, the tissue section was washed with water for 10 minutes, passed through 80% ethanol, and dipped in eosin solution for 10 minutes. Subsequently, the tissue section was washed with water lightly, dehydrated, cleared and mounted to thereby perform HE staining.

[2] = test system: human lung cancer cell H1299 and human large bowel cancer cell SW620; test: Quantitative real-time PCR of E1A gene, proliferation/replication of Telomelysin; assay type: cell-based; settings: Telomelysin 0.1 MOI in combination with docetaxel versus alone
Procedure: How the proliferation of Telomelysin would be affected when an anticancer agent acting on microtubule is combined with Telomelysin was analyzed by quantitative real-time PCR.
Human lung cancer cell H1299 and human large bowel cancer cell SW620 were infected with Telomelysin at 0.1 MOI for 2 hours. Two hours thereafter, docetaxel was administered. At 12, 24, 36, 48 and 60 hours after the infection, cells were harvested. DNA contained in the cells and in the supernatant was extracted separately. Real-time PCR was performed using primers targeting the E1A gene carried by Telomelysin, to thereby analyze viral proliferation/replication quantitatively. Specifically, 2 μl of DNA extract was added to 18 μl of PCR solution. PCR was performed using E1A primers under the following conditions.
Composition of the PCR solution: • 1×LC FastStart DNA Master SYBR Green I • 3 mM MgCl2 • 0.5 μM each primer Reaction conditions: • 95° C., 10 min • (95° C., 10 sec; 60° C., 15 sec; 72° C., 8 sec)×40 cycles • 70° C., 15 sec • 40° C., 30 sec

HepG2 cells = test: XTT assay, combined effect of Telomelysin and anticancer agent; assay type: cell-based, human; settings: docetaxel combined with Telomelysin; day 5 of infection
Procedure: (§2) Telomelysin was infected to the following various cancer cells cultured in vitro at the concentrations of 0 (Mock), 0.1 or 1 MOI (multiplicity of infection). The cells used were as follows.
(§3) Specifically, 1×10^3 cells from each of the above cell strains were plated in a 96-well plate. After 24 hours, cells were counted and the virus was added to the culture broth at a concentration of 0.1 MOI or 1 MOI.
(§4) On the next day, docetaxel was added to the virus-infected cell culture broth at various concentrations (control, 0.1 nM, 1.0 nM, 10.0 nM and 100.0 nM).
(§5) On day 5 of infection, XTT assay was performed using a kit (Roche Diagnostics). Briefly, the culture broth was removed from the plate. A reaction solution containing XTT reagent was prepared and added to the plate. Cells were cultured for about 4 hours. Then, absorbance was measured with a microtiter plate (ELISA) reader, and the number of viable cells was calculated to thereby confirm antitumor effect.

LNCaP cells = test: as above; assay type: cell-based, human; settings: docetaxel combined with Telomelysin; day 5 of infection
Procedure: as §2, §3, §4, §5

H226Br cells = test: as above; assay type: cell-based, human
Procedure: as §2, §3, §4, §5

H1299 cells = test: as above; assay type: cell-based, human; settings: low concentrations of docetaxel combined with Telomelysin 0.1 MOI; day 5 of infection
Procedure: as §2, §3, §4, §5

T.Tn cells = test: as above; assay type: cell-based, human
Procedure: as §2, §3, §4, §5

H1299 tumor tissue = test: HE staining of tumor tissue after intratumoral administration; assay type: in vivo, nude mice; settings: Telomelysin in combination with docetaxel; six days after the final administration
Procedure: as §1

[3] = test system: various cancer cells cultured in vitro; test: XTT assay, combined effect of Telomelysin and anticancer agent, cell strains not named individually; assay type: cell-based, human
Procedure: as §2, §3, §4, §5
XTT assays were performed in the same manner as described above using microtubule inhibitor vinorelbine and topoisomerase I inhibitor SN-38 (CPT-11 metabolite) as anticancer agents combined with Telomelysin.

[4] = Telomelysin and docetaxel in combination
[5] = docetaxel combined with Telomelysin, day 5 of infection

## CC(=O)O[C@@]12CO[C@@H]1C[C@H](O)[C@@]1(C)C(=O)[C@H](O)C3=C(C)[C@@H](OC(=O)[C@H](O)[C@@H](NC(=O)OC(C)(C)C)c4ccccc4)C[C@@](O)([C@@H](OC(=O)c4ccccc4)[C@H]21)C3(C)C [docetaxel]
Tumor cells; [4]
  apoptosis observed: apoptosis (DNA fragmentation)
  sub G0/G1: increased gradually
  cell cycle arrest: G2/M arrest
Tumor cells; docetaxel administered alone
  apoptosis observed: apoptosis (DNA fragmentation)
  sub G0/G1: increased gradually
  cell cycle arrest: G2/M arrest
[1]
  antitumor effect (tumor size) compared to the control group and single use groups: still more significant antitumor effect
liver
  toxicity in liver tissue: Toxicity was not observed
[2]
  proliferation efficiency of Telomelysin diffused in supernatant (E1A DNA): equal proliferation efficiency
HepG2 cells
  combined effect (antitumor effect, viable cells): evident combined effect was not observed
LNCaP cells
  combined effect (antitumor effect, viable cells): evident combined effect was not observed
H226Br cells; [5]
  combined effect (antitumor effect, viable cells): evident combined effect was not observed
H226Br cells; docetaxel itself
  sensitivity of cell strain to docetaxel: sensitivity to docetaxel itself
H1299 cells
  combined effect (antitumor effect, viable cells): especially remarkable
T.Tn cells; [5]
  combined effect (antitumor effect, viable cells): evident combined effect was not observed
T.Tn cells; docetaxel itself
  sensitivity of cell strain to docetaxel: sensitivity to docetaxel itself
H1299 tumor tissue
  hyaline degeneration of tumor cells: observed in a wide range

## CCc1c2c(nc3ccc(O)cc13)-c1cc3c(c(=O)n1C2)COC(=O)[C@]3(O)CC [SN-38]
[3]; SN-38 combined with Telomelysin, when the concentration of SN-38 was low
  combined effect (antitumor effect, viable cells): combined effect was observed
[3]; any of the cell strains tested
  sensitivity of cell strains to SN-38: has sensitivity

## CCC1=C[C@@H]2CN(C1)Cc1c([nH]c3ccccc13)[C@@](C(=O)OC)(c1cc3c(cc1OC)N(C)[C@H]1[C@@](O)(C(=O)OC)[C@H](OC(C)=O)[C@]4(CC)C=CCN5CC[C@]31[C@@H]54)C2 [vinorelbine]
[3]; vinorelbine combined with Telomelysin
  combined effect (antitumor effect, viable cells): combined effect almost equal to that shown by docetaxel
